Test results taken from ChEMBL document CHEMBL2157893, “A potent and orally active antagonist (SM-406/AT-406) of multiple inhibitor of apoptosis proteins (IAPs) in clinical development for cancer treatment” (J Med Chem, 2011).
Calls of active or inactive are those of the source. The calls are words filed in the database; no cut-off is given here.

Tests used:
[1] = biological target: T1, Baculoviral IAP repeat-containing protein 2 (Homo sapiens, UniProt Q13490)
[2] = biological target: T1, Baculoviral IAP repeat-containing protein 2; test: Binding affinity to human cIAP1 BIR3 domain expressed in Escherichia coli BL21(DE3) assessed as dissociation constant after 2 to 3 hrs by fluorescence polarization assay
[3] = biological target: E3 ubiquitin-protein ligase XIAP (Homo sapiens, UniProt P98170); test: Binding affinity to His6-tagged human XIAP BIR3 domain expressed in Escherichia coli BL21(DE3) assessed as dissociation constant after 2 to 3 hrs by fluorescence polarization assay
E3 ubiquitin-protein ligase XIAP, sequence (P98170 whole entry, the tested form may be a part): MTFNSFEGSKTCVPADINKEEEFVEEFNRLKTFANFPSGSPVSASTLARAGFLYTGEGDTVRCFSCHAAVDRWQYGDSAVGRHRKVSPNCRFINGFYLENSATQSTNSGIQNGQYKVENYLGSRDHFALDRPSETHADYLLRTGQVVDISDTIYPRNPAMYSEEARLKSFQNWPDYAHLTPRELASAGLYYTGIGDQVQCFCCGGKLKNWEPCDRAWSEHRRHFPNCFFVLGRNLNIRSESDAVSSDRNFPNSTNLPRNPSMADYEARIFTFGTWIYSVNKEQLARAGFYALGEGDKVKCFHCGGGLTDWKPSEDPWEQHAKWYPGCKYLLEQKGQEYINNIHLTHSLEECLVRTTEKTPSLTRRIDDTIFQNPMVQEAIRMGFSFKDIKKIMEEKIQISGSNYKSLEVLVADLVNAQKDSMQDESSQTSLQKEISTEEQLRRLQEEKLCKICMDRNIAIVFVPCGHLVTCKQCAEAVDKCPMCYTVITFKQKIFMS

[4] = tested on: Mus musculus; test: AUC (0 to t) in mouse at 10 mg/kg, iv; format: ADME, organism-based, Plasma; design: dose 10 mg/kg, route intravenous; settings: in vivo
[5] = tested on: Rattus norvegicus; test: AUC (0 to t) in Sprague-Dawley rat at 25 mg/kg, po; format: ADME, organism-based, Plasma; design: dose 25 mg/kg, route oral; settings: in vivo
[6] = tested on: Mus musculus; test: Half life in mouse at 30 mg/kg, po; format: ADME, organism-based; design: dose 30 mg/kg, route oral; settings: in vivo
[7] = tested on: Canis familiaris; test: Half life in beagle dog at 10 mg/kg, po; format: ADME, organism-based, Canis lupus familiaris; design: dose 10 mg/kg, route oral; settings: in vivo
[8] = tested on: Cynomolgus monkey; test: Oral bioavailability in cynomolgus monkey at 5 mg/kg; format: ADME, organism-based, Macaca fascicularis; settings: in vivo
[9] = tested on: Cynomolgus monkey; test: AUC (0 to t) in cynomolgus monkey at 5 mg/kg, po; format: ADME, organism-based, Macaca fascicularis, Plasma; design: dose 5 mg/kg, route oral; settings: in vivo
[10] = tested on: Rattus norvegicus; test: Half life in Sprague-Dawley rat at 25 mg/kg, po; format: ADME, organism-based; design: dose 25 mg/kg, route oral; settings: in vivo
[11] = tested on: Mus musculus; test: AUC (0 to t) in mouse at 30 mg/kg, po; format: ADME, organism-based, Plasma; design: dose 30 mg/kg, route oral; settings: in vivo
[12] = tested on: Cynomolgus monkey; test: Half life in cynomolgus monkey at 5 mg/kg, po; format: ADME, organism-based, Macaca fascicularis; design: dose 5 mg/kg, route oral; settings: in vivo
[13] = tested on: Cynomolgus monkey; test: AUC (0 to t) in cynomolgus monkey at 2.5 mg/kg, iv; format: ADME, organism-based, Macaca fascicularis, Plasma; design: dose 2.5 mg/kg, route intravenous; settings: in vivo
[14] = tested on: Canis familiaris; test: AUC (0 to t) in beagle dog at 5 mg/kg, iv; format: ADME, organism-based, Canis lupus familiaris, Plasma; design: dose 5 mg/kg, route intravenous; settings: in vivo
[15] = tested on: Canis familiaris; test: Half life in beagle dog at 5 mg/kg, iv; format: ADME, organism-based, Canis lupus familiaris; design: dose 5 mg/kg, route intravenous; settings: in vivo
[16] = tested on: Cynomolgus monkey; test: Half life in cynomolgus monkey at 2.5 mg/kg, iv; format: ADME, organism-based, Macaca fascicularis; design: dose 2.5 mg/kg, route intravenous; settings: in vivo
[17] = tested on: Rattus norvegicus; test: Half life in Sprague-Dawley rat at 5 mg/kg, iv; format: ADME, organism-based; design: dose 5 mg/kg, route intravenous; settings: in vivo
[18] = tested on: Canis familiaris; test: AUC (0 to t) in beagle dog at 10 mg/kg, po; format: ADME, organism-based, Canis lupus familiaris, Plasma; design: dose 10 mg/kg, route oral; settings: in vivo
[19] = tested on: Mus musculus; test: Oral bioavailability in mouse at 30 mg/kg; format: ADME, organism-based; settings: in vivo
[20] = tested on: Canis familiaris; test: Oral bioavailability in beagle dog at 10 mg/kg; format: ADME, organism-based, Canis lupus familiaris; settings: in vivo
[21] = tested on: Mus musculus; test: Half life in mouse at 10 mg/kg, iv; format: ADME, organism-based; design: dose 10 mg/kg, route intravenous; settings: in vivo
[22] = tested on: Rattus norvegicus; test: Oral bioavailability in Sprague-Dawley rat at 25 mg/kg; format: ADME, organism-based; settings: in vivo
[23] = tested on: MDA-MB-231; test: Antitumor activity against human MDA-MB-231 cells xenografted in SCID mouse assessed inhibition of tumor growth at 30 mg/kg, po administered daily for 5 days/week for 2 weeks; format: functional, organism-based; design: dose 30 mg/kg
[24] = tested on: MDA-MB-231; test: Induction of apoptosis in human MDA-MB-231 cells assessed as activation of caspase-3 activity at 1.5 uM after 12 hrs by Western blot analysis; format: functional, cell-based
[25] = tested on: MDA-MB-231; test: Induction of cell death in human MDA-MB-231 cells at 1 uM by trypan blue exclusion assay; format: functional, cell-based; settings: TDE = time-dependent effect
[26] = tested on: Mus musculus; test: Induction of degradation of cIAP1 in human MDA-MB-231 cells xenografted in SCID mouse at 100 mg/kg, po administered as single dose measured after 2 hrs by Western blot analysis; format: functional, organism-based; design: dose 100 mg/kg
[27] = tested on: Mus musculus; test: Induction of procaspase-8 processing in human MDA-MB-231 cells xenografted in SCID mouse at 100 mg/kg, po administered as single dose measured after 6 hrs by Western blot analysis; format: functional, organism-based; design: dose 100 mg/kg
[28] = tested on: MDA-MB-231; test: Antitumor activity against human MDA-MB-231 cells xenografted in SCID mouse assessed inhibition of tumor growth at 100 mg/kg, po administered daily for 5 days/week for 2 weeks; format: functional, organism-based; design: dose 100 mg/kg
[29] = tested on: Mus musculus; test: Induction of PARP cleavage in human MDA-MB-231 cells xenografted in SCID mouse at 100 mg/kg, po administered as single dose measured after 2 hrs by Western blot analysis; format: functional, organism-based; design: dose 100 mg/kg
[30] = tested on: MDA-MB-231; test: Induction of cell death in human MDA-MB-231 cells incubated for 24 hrs by trypan blue exclusion assay; format: functional, cell-based
[31] = tested on: MDA-MB-231; test: Induction of apoptosis in human MDA-MB-231 cells assessed as activation of PARP cleavage at 1.5 uM after 12 hrs by Western blot analysis; format: functional, cell-based
[32] = tested on: Mus musculus; test: Induction of degradation of cIAP1 in human MDA-MB-231 cells xenografted in SCID mouse at 100 mg/kg, po administered as single dose measured after 16 hrs by Western blot analysis; format: functional, organism-based; design: dose 100 mg/kg
[33] = tested on: Mus musculus; test: Induction of PARP cleavage in human MDA-MB-231 cells xenografted in SCID mouse at 100 mg/kg, po administered as single dose measured after 6 hrs by Western blot analysis; format: functional, organism-based; design: dose 100 mg/kg
[34] = tested on: Mus musculus; test: Induction of PARP cleavage in human MDA-MB-231 cells xenografted in SCID mouse at 100 mg/kg, po administered as single dose measured after 16 hrs by Western blot analysis; format: functional, organism-based; design: dose 100 mg/kg
[35] = tested on: MDA-MB-231; test: Antitumor activity against human MDA-MB-231 cells xenografted in SCID mouse assessed inhibition of tumor growth at 10 mg/kg, po administered daily for 5 days/week for 2 weeks; format: functional, organism-based; design: dose 10 mg/kg
[36] = tested on: Mus musculus; test: Induction of procaspase-8 processing in human MDA-MB-231 cells xenografted in SCID mouse at 100 mg/kg, po administered as single dose measured after 2 hrs by Western blot analysis; format: functional, organism-based; design: dose 100 mg/kg
[37] = tested on: Mus musculus; test: Toxicity in human MDA-MB-231 cells xenografted in SCID mouse assessed weight loss at 7.5 mg/kg, iv administered once/week for 2 weeks; settings: in vivo, 336 h
[38] = tested on: Mus musculus; test: Induction of PARP cleavage in human MDA-MB-231 cells xenografted in SCID mouse at 7.5 mg/kg, iv administered as single dose measured after 24 hrs by Western blot analysis; format: functional, organism-based; design: dose 7.5 mg/kg
[39] = tested on: MDA-MB-231; test: Antitumor activity against human MDA-MB-231 cells xenografted in SCID mouse assessed inhibition of tumor growth at 7.5 mg/kg, iv administered once/week for 2 weeks
[40] = tested on: Mus musculus; test: Induction of degradation of cIAP1 in human MDA-MB-231 cells xenografted in SCID mouse at 7.5 mg/kg, iv administered as single dose measured after 24 hrs by Western blot analysis; format: functional, organism-based; design: dose 7.5 mg/kg
[41] = tested on: Mus musculus; test: Induction of procaspase-8 processing in human MDA-MB-231 cells xenografted in SCID mouse at 7.5 mg/kg, iv administered as single dose measured after 24 hrs by Western blot analysis; format: functional, organism-based; design: dose 7.5 mg/kg

T1 sequence (Q13490 whole entry, the tested form may be a part): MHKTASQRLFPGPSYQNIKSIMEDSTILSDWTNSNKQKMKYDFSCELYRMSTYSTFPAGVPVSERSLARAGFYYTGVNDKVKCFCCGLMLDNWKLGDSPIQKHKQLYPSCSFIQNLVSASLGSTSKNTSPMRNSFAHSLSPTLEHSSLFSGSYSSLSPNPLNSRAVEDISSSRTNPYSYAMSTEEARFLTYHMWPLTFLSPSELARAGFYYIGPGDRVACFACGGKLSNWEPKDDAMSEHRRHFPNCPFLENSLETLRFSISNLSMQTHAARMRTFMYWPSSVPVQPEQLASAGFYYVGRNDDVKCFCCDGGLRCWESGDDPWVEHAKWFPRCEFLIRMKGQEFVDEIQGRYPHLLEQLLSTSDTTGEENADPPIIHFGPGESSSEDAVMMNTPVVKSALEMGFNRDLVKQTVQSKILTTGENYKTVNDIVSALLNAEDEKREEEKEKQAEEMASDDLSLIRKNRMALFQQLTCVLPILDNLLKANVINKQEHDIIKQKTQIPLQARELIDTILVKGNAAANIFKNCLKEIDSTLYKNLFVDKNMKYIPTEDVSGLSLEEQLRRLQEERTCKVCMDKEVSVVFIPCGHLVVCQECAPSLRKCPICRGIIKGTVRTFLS

CN[C@@H](C)C(=O)N[C@H]1CN(C(=O)CC(C)C)CC[C@H]2CC[C@@H](C(=O)N[C@@H](c3ccccc3)c3cn(CCCCCCCCCCNC(=O)CCCCCNC(=O)CCCC[C@@H]4SC[C@@H]5NC(=O)N[C@@H]54)nn3)N2C1=O
Ki [1]: < 1 nM

CN[C@@H](C)C(=O)N[C@H]1CN(C(=O)CC(C)C)CC[C@H]2CC[C@@H](C(=O)N[C@@H](c3ccccc3)c3cn(CCCCCCCCCCNC(=O)c4ccc(-c5c6ccc(=O)cc-6oc6cc(O)ccc56)c(C(=O)O)c4)nn3)N2C1=O
Kd [2]: 0.7 nM
Kd [3]: 4.4 nM

CN[C@@H](C)C(=O)N[C@H]1CN(C(=O)CC(C)C)CC[C@H]2CC[C@@H](C(=O)NC(c3ccccc3)c3ccccc3)N2C1=O.Cl
AUCt [4]: 3.8 µg·h/mL
AUCt [5]: 2.3 µg·h/mL
t1/2 [6]: 2.3 h
t1/2 [7]: 27.1 h
F [8]: 42%
AUCt [9]: 13.5 µg·h/mL
t1/2 [10]: 1.8 h
AUCt [11]: 4.3 µg·h/mL
t1/2 [12]: 5.4 h
AUCt [13]: 17.9 µg·h/mL
AUCt [14]: 81.6 µg·h/mL
t1/2 [15]: 16.3 h
t1/2 [16]: 6.3 h
t1/2 [17]: 1.4 h
AUCt [18]: 90.3 µg·h/mL
F [19]: 38%
F [20]: 55%
t1/2 [21]: 3 h
F [22]: 45%

CN[C@@H](C)C(=O)N[C@H]1CN(C(=O)CC(C)C)CC[C@H]2CC[C@@H](C(=O)NC(c3ccccc3)c3ccccc3)N2C1=O
TGI [23]: Active
Activity [24]: Active
Activity [25]: tde
Activity [26]: Active
Activity [27]: Active
TGI [28]: Active
Activity [29]: Active
Activity [30]: Dose-dependent effect
Activity [31]: Active
Activity [32]: Active
Activity [33]: Active
Activity [34]: Active
TGI [35]: inactive
Activity [36]: Active

CC(=O)O[C@@]12CO[C@@H]1C[C@H](O)[C@@]1(C)C(=O)[C@H](O)C3=C(C)[C@@H](OC(=O)[C@H](O)[C@@H](NC(=O)OC(C)(C)C)c4ccccc4)C[C@@](O)([C@@H](OC(=O)c4ccccc4)[C@H]21)C3(C)C.O.O.O [DOCETAXEL]
Activity [37]: Toxic
Activity [38]: inactive
TGI [39]: Active
Activity [40]: inactive
Activity [41]: Active
